Measured values reported in article PMC8986850, “Development and exploration of novel substituted thiosemicarbazones as inhibitors of aldose reductase via in vitro analysis and computational study” (Scientific Reports, 2022).

Key:
ALR1 = molecular target: T1, ALR1 (Bos taurus, UniProt Q3ZCJ2); test: ALR1 enzyme inhibition assay (enzyme extracted from calf kidneys); assay type: biochemical, bovine; conditions: bovine kidney ALR1, 100 µM inhibitor; read-out: I (%, 100 µM) (ALR1)
T1 construct: The calf’s kidneys were obtained after slaughtering and dissection; from tissue; host or cells: calf kidneys
T1 sequence (Q3ZCJ2 whole entry): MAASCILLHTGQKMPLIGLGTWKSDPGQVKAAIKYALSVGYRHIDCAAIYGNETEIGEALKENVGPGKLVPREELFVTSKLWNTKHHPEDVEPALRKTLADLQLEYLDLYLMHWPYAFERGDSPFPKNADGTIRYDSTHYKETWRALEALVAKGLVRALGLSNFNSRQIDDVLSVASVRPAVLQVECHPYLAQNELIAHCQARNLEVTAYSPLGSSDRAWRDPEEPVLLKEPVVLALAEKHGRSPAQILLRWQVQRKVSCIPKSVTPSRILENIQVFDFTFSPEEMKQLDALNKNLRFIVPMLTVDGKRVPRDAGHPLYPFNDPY
Method: Compounds 3a-o were tested against ALR2 to evaluate their inhibitory potential against aldose reductase whereas selectivity was determined via performing ALR1 inhibition assay. For the enzyme inhibition assay, ALR2 and ALR1 were extracted from bovine sources (ALR2 from eyes and ALR1 from kidneys). Moreover, inhibitions studies were also carried out on the expressed ALR2 (human AKR1B1) and inhibition data for ALR2- bovine source and expressed enzyme was compared and analyzed. The protocols for enzyme extraction and expression in the bacterial system are included in the section of “Supporting information”. […] For the purpose of comparison and validation of enzyme inhibition data, these compounds were tested against human AKR1B1 (hAKR1B1) expressed in E. coli BL21 (DE3). We found a similar pattern of enzyme inhibition for the synthesized compounds against extracted enzyme (ALR2) as well as expressed enzyme (hAKR1B1).
(§1) For the determination of enzyme activity of ALR1 and ALR2, 100 µL of reaction mixture was composed of 20 µL of buffer (100 mM sodium phosphate, pH 6.2), 30 µL of enzyme extract, 20 µL of substrate (10 mM), 20 µL of cofactor (0.1 mM of NADPH) and 10 µL of test compound (1 mM)[6],[21]. The reaction mixture without cofactor was incubated at 32°C for 10 min, then the enzymatic reaction was initiated with the addition of NADPH and monitored for 5 minutes. Similar protocols were followed for ALR1 and ALR2, however the substrate was different for each enzyme, with sodium-D-glucoronate and DL-glyceraldehyde used as the substrates for the ALR1 and ALR2 assays, respectively. […] In addition, similar protocols were adopted for human AKR1B1 that was expressed in E. coli BL21 (DE3), though the determined protein concentration was 12 µg/mL for the expressed enzyme. Detailed protocols for the preparation of ALR1, ALR2 and expressed human AKR1B1 can be found in the supporting information.
(§2) The newly synthesized N-substitute thiosemicarbazones (3a-o) were dissolved in 100% DMSO and diluted with deionized water, keeping the DMSO concentration equal to 0.1% in the assay.
The calf’s kidneys were obtained after slaughtering and dissection, dissolved in 3 volumes of sodium phosphate buffer (10mM) which is composed of 2.0 mM EDTA, 2.5mM β-mercaptoethanol, 0.25M solution of sucrose at pH 7.25. First, the homogenisation was carried out then centrifugation of the homogenate was performed at 12000 x g at 0-2^◦C for 30 minutes. The precipitates containing insoluble lipids were discarded and the collected supernatant layer was treated with 40% saturation of ammonium sulphate. This liquid mixture was subjected to centrifugation at 11000 x g at 0-2^◦C for 30 minutes. Now, precipitates were again discarded and supernatant was collected and treated with 50% ammonium sulphate and procedure was repeated in the same manner as in previous step. In the last step, the saturation of ammonium sulphate was increased up to 75% and supernatant was subjected to same parameter of centrifugation. At this final step, precipitates were obtained and supernatant layer was discarded. The obtained material of precipitates was composed of ALR1and redissolved in initial buffer that was used during homogenisation. Finally, material was dialyzed overnight with same buffer system. The dialyzed fractions containing ALR1 were stored at -80^◦C for further use[5].

ALR2 = molecular target: T2, ALR2 (Bos taurus, UniProt P16116); test: ALR2 enzyme inhibition assay (enzyme extracted from calf lenses); assay type: biochemical, bovine
T2 construct: from tissue; host or cells: calf eye lenses
Method: Compounds 3a-o were tested against ALR2 to evaluate their inhibitory potential against aldose reductase whereas selectivity was determined via performing ALR1 inhibition assay. For the enzyme inhibition assay, ALR2 and ALR1 were extracted from bovine sources (ALR2 from eyes and ALR1 from kidneys). Moreover, inhibitions studies were also carried out on the expressed ALR2 (human AKR1B1) and inhibition data for ALR2- bovine source and expressed enzyme was compared and analyzed. The protocols for enzyme extraction and expression in the bacterial system are included in the section of “Supporting information”. […] For the purpose of comparison and validation of enzyme inhibition data, these compounds were tested against human AKR1B1 (hAKR1B1) expressed in E. coli BL21 (DE3).
as §1, §2
The extraction of ALR2 was carried out from calf lenses via adopting method described in
in (Hayman and Kinoshita 1965) with little modification. The lenses were obtained from slaughterhouse immediately after calf’s slaughtering and stored at -20^◦C until further use. These lense (150-170g) were subjected to homogenization with about three times volume of cold distilled water and then centrifugation was carried out for the homogenate at 10,000 x g for 14 minutes for removal of insoluble lipids particles. Precipitates were discarded and supernatant layer was subjected to 40% saturation of ammonium sulphate and again centrifugation was performed with same parameters for 14 minutes and again precipitates were discarded. […] In the last step, the supernatant was subjected to 75% of saturation with ammonium sulphate to obtain ALR2. Now, the precipitates were collected instead supernatant because precipitated protein was the expected desired ALR2. The precipitated enzyme (ALR2) was redissolved in 50mM solution of sodium chloride and dialyzed for 24 hours against 50mM solution (3.5L) of NaCl. The volume was recorded before and after dialysis, then dialyzed material was treated with liquid nitrogen. The extracted ALR2 was stored in 1mL Eppendorf tube in deep freezer at -80 ^◦C till further enzymatic studies.

SMILES: CC(C)(C)c1cc(C=NNC(=S)Nc2ccccc2F)c(O)c(C(C)(C)C)c1 [Compound 3m, 2-(3,5-di-tert-butyl-2-hydroxybenzylidene)-N-(2-fluorophenyl)hydrazine carbothioamide]
- inhibition at 100 µM (ALR1): 4.27 to 26.2%
- melting point: 180 to 182 °C
- inhibition at 100 µM (ALR2; bovine lens ALR2, 100 µM inhibitor, read-out: I (%, 100 µM) (ALR2) (converted)): 85.1%
- IC50 (ALR2; bovine lens ALR2, substrate DL-glyceraldehyde, mean ± SEM of three measurements): 1.18 ± 0.0034 µM
